From patent US20170119034A1, “COMPOSITIONS AND METHODS FOR MODIFYING PERCEPTION OF SWEET TASTE” (University of Florida Research Foundation, Inc., priority 2012, published 2017)

Key:
Format in all cases: in vivo, human
[1] = tested on: texture liking of strawberry fruit (consumer panel); test: Strawberry consumer panel: bivariate fit to texture liking; settings: bivariate linear fit; X = content of the substance in strawberry fruit, Y = Texture liking
Protocol: (§1) All consumer panels were approved by the University of Florida Institutional Review Board. […] Ages of panelist ranged from 18 to 71, with a median age of 24. Panelists self-classified themselves as 98 White or Caucasian, 11 Black or African-American, 1 Native American, Alaska Native or Aleutian, 41 Asian/Pacific Islander, and 15 Other. […] Fresh, fully-ripe strawberry fruit was removed from overnight 4° C. dark storage and allowed to warm to room temperature prior to sensory analysis. Each panelist was given one to two whole strawberries for evaluation, depending on cultivar availability. Panelist took a bite of each sample, chewed, and swallowed it. Ratings for overall liking and liking for texture were scaled on hedonic general labeled magnitude scale (gLMS) in the context of all pleasure/displeasure experiences. […] Scales were employed to mediate valid comparisons across subjects and sessions.
(§2) Bivariate analysis among individual measurements of samples allowed for linear fit, which includes summary of fit, analysis of variance, t-test, and correlation analysis for density ellipse. Two-way Ward hierarchical cluster analysis of all metabolite concentrations and strawberry samples accomplished in JMP.

[2] = tested on: strawberry flavor intensity (consumer panel); test: Strawberry consumer panel: bivariate fit to strawberry flavor intensity; settings: for Parameter Estimates: Estimate: bivariate linear fit, X = content of the substance in strawberry fruit, Y = Flavor Intensity (FI); for relationship to strawberry flavor intensity / sensory perception: in words
Protocol: as §1, §2

[3] = tested on: perceived sweetness intensity of strawberry fruit (consumer panel); test: Strawberry consumer panel: multiple regression of volatile concentration against perceived sweetness intensity independent of glucose, fructose or sucrose; settings: for enhancement of perceived intensity of sweetness independent of sugars: in words; for negatively related to sweetness: sugar(s) of which the effect is independent: compounds negatively related to sweetness independent of at least one of the sugars; for FRUCTOSE t RATIO: volatile concentration regressed against perceived sweetness intensity independent of fructose; for GLUCOSE t RATIO: volatile concentration regressed against perceived sweetness intensity independent of glucose; for SUCROSE t RATIO: volatile concentration regressed against perceived sweetness intensity independent of sucrose
Protocol: Step-wise multiple regressions of all volatile compounds against perceived intensity of sweetness is performed independent of either glucose, fructose, or sucrose concentration, separately (Table 6).
as §1
Multiple regressions were performed with the “enter” method in SPSS for identification of sweetness enhancing volatiles. Individual volatile compound concentrations were regressed using the “enter” method in SPSS Statistics (IBM Corp, Armonk, N.Y., USA).

SMILES | Parameter Estimates-fit to Texture Liking: Estimate [1] | Parameter Estimates: Estimate [2] | further results
CSC(C)=O [1534-08-3] | 0.06449 | 1.808 | 
CCCCC(=O)OCC [539-82-2, ethyl valerate] |  |  | enhancement of perceived intensity of sweetness independent of sugars [3]: show evidence of enhancing perceived sweetness intensity independent of individual sugars
CCC(C)COC(C)=O (stereo not shown) [624-41-9] | −0.03512 | 0.009696 | 
CCC(O)C(=O)OC (stereo not shown) [29674-47-3] | 0.02693 | 0.207 | 
O=C(O)CC(O)C(=O)O (stereo not shown) [Malic] | 0.05905 | 0.001142 | 
C=CC(=O)CC [1629-58-9, 1-penten-3-one] |  |  | enhancement of perceived intensity of sweetness independent of sugars [3]: mutually independent of all three sugar
C=C[C@]1(C)CC[C@H](C(C)(C)O)O1 [5989-33-3] | 0.6605 | 0.7378 | 
CCCCC(CC)COC(C)=O (stereo not shown) [103-09-3] | −1.955 | 0.01965 | 
CCCCCC=O [66-25-1] | 0.0005099 | 0.0002842 | relationship to strawberry flavor intensity / sensory perception [2]: does not have a significant correlation to flavor intensity
C=CC(C)(O)CC/C=C(\C)CCC=C(C)C (stereo not shown) [40716-66-3] | 0.01941 | 0.01223 | 
CCCCC/C=C\C=O [20664-46-4] | −0.04121 | 0.03985 | 
CCCCCCCCOC(=O)C(C)CC (stereo not shown) [29811-50-5] | −0.1411 | 0.1055 | 
CCCCCCCC(=O)OCC [106-32-1, ethyl octanoate] |  |  | negatively related to sweetness: sugar(s) of which the effect is independent [3]: exclusively independent of glucose
CCCCCCC1CCC(=O)O1 (stereo not shown) [706-14-9] | 0.01485 | 0.02049 | 
C=C(C)C1CC=C(COC(C)=O)CC1 (stereo not shown) [15111-96-3] | −0.1056 | −0.2365 | 
CCCCCCCCC1CCC(=O)O1 (stereo not shown) [2305-05-7, 5-octyldihydro-2(3H)-furanone] |  |  | enhancement of perceived intensity of sweetness independent of sugars [3]: mutually independent of all three sugar
C=CC(C)(O)CCC=C(C)C (stereo not shown) [78-70-6] | 0.007729 | 0.009457 | FRUCTOSE t RATIO [3]: 0.872; GLUCOSE t RATIO [3]: 0.7; SUCROSE t RATIO [3]: −0.1; relationship to strawberry flavor intensity / sensory perception [2]: significant positive correlation with flavor intensity
CCCCCC(=O)OC [106-70-7] | −0.002647 | 0.002291 | FRUCTOSE t RATIO [3]: −0.321; GLUCOSE t RATIO [3]: −0.531; SUCROSE t RATIO [3]: 0.802
CCC(C)(C)O [75-85-4] | 0.3219 | 0.1051 | 

SMILES | Parameter Estimates-fit to Texture Liking: Estimate [1] | Parameter Estimates: Estimate [2] | further results
CCCCCCCC(C)=O [821-55-6] | 0.09508 | 0.06252 | FRUCTOSE t RATIO [3]: −0.267; GLUCOSE t RATIO [3]: −0.467; SUCROSE t RATIO [3]: 1.192
CCCCOC(=O)CC(C)C [109-19-3, butyl 3-methylbutanoate] |  |  | enhancement of perceived intensity of sweetness independent of sugars [3]: show evidence of enhancing perceived sweetness intensity independent of individual sugars
CCCCC/C=C/C=O [2548-87-0] | 1.345 | 0.6039 | 
CCCCC(=O)C(C)=O [96-04-8] | −0.09953 | 0.01959 | 
CCCCCCOC(C)=O [142-92-7, hexyl acetate] |  |  | enhancement of perceived intensity of sweetness independent of sugars [3]: mutually independent of all three sugar
CCCC(=O)OC [623-42-7] | 6.892e−05 | 0.0008905 | relationship to strawberry flavor intensity / sensory perception [2]: significant positive correlation with flavor intensity
CCCCCC(C)=O [110-43-0] | 0.07262 | 0.06351 | FRUCTOSE t RATIO [3]: 1.054; GLUCOSE t RATIO [3]: 0.657; SUCROSE t RATIO [3]: 1.899
CC(=O)OCC=C(C)C [1191-16-8, 3-methyl-2-buten-1-yl acetate] |  |  | negatively related to sweetness: sugar(s) of which the effect is independent [3]: exclusively independent of sucrose
CCCC(=O)CC [589-38-8] | 0.4306 | 0.4621 | 
COC1=C(C)OC(C)C1=O (stereo not shown) [4077-47-8, 4-methoxy-2,5-dimethyl-3(2H)-furanone] |  |  | relationship to strawberry flavor intensity / sensory perception [2]: significant positive correlation with flavor intensity
CC=C(C)C(=O)OCC [55514-48-2] | −2.984 | −0.1506 | 
CCCCCC(=O)OCC [123-66-0] | −0.0003354 | 0.002386 | relationship to strawberry flavor intensity / sensory perception [2]: no bearing on sensory perception
CC(=O)OCc1ccccc1 [140-11-4] | −0.0849 | 0.02204 | 
Cc1cc(C(C)(C)C)c(O)c(C(C)(C)C)c1 [128-37-0] | 0.2009 | 0.1227 | 
CCCCCCCC=O [124-13-0] | −0.2865 | 0.3091 | 
CCCOC(C)=O [109-60-4] | −0.5137 | −0.05307 | 
COC(=O)c1ccccc1N [134-20-3] | −4.493 | −0.8484 | 
CCC/C=C/CO [928-95-0] | −0.0133 | −0.0006379 | 
C/C=C/C(=O)OC [623-43-8] | −0.7133 | −0.101 | 

SMILES | Parameter Estimates-fit to Texture Liking: Estimate [1] | Parameter Estimates: Estimate [2] | further results
CCCCCO [71-41-0] | 0.3727 | 0.2445 | 
COC(=O)CC(C)C [556-24-1] | −0.03139 | 0.009438 | FRUCTOSE t RATIO [3]: 0.732; GLUCOSE t RATIO [3]: 0.88; SUCROSE t RATIO [3]: 0.972
CCC/C=C/COC(C)=O [2497-18-9] | −0.02456 | 0.008248 | 
CC(=O)CC(C)C [108-10-1, 4-Methyl-2-pentanone] |  |  | negatively related to sweetness: sugar(s) of which the effect is independent [3]: mutually independent of glucose and fructose
CCCCC(=O)OC [624-24-8] | 0.2596 | −0.1 | 
CCCC(=O)OCC [105-54-4, ethyl butyrate] |  |  | relationship to strawberry flavor intensity / sensory perception [2]: significant positive correlation with flavor intensity
C=CC(O)CC (stereo not shown) [616-25-1] | 0.06401 | 0.2097 | 
O=C(O)CC(O)(CC(=O)O)C(=O)O [Citric] | −0.001831 | 0.01293 | 
CCCCCCCCOC(=O)CC(C)C [7786-58-5, octyl 3-methylbutanoate] |  |  | enhancement of perceived intensity of sweetness independent of sugars [3]: show evidence of enhancing perceived sweetness intensity independent of individual sugars
CCCCCCOC(=O)CCC [2639-63-6, hexyl butyrate] |  |  | enhancement of perceived intensity of sweetness independent of sugars [3]: mutually independent of all three sugar
CC(=O)OCCC(C)C [123-92-2] | −0.07997 | 0.005816 | 
CCCCCCC=O [111-71-7, heptanal] |  |  | enhancement of perceived intensity of sweetness independent of sugars [3]: show evidence of enhancing perceived sweetness intensity independent of individual sugars
CCCCCOC(C)=O [628-63-7] | −0.1907 | 0.4892 | 
CCC(=O)CC [96-22-0] | 0.004596 | 0.05443 | 
CCCC(=O)OC(C)CCC (stereo not shown) [60415-61-4, 2-pentanyl butyrate] |  |  | enhancement of perceived intensity of sweetness independent of sugars [3]: mutually independent of all three sugar
CCCCC=O [110-62-3] | 0.1789 | −0.1249 | relationship to strawberry flavor intensity / sensory perception [2]: negatively correlated to flavor
CCCCCOC(=O)CCC [540-18-1, pentyl butyrate] |  |  | enhancement of perceived intensity of sweetness independent of sugars [3]: mutually independent of all three sugar
CCOC(=O)CC [105-37-3] | −0.01062 | −0.01371 | 
CC/C=C/C=O [1576-87-0, (E)-pent-2-en-1-al] |  |  | relationship to strawberry flavor intensity / sensory perception [2]: enhancing toward flavor intensity
